According to US20150307938A1, “METHOD TO IDENTIFY A NOVEL CLASS OF IMMUNOLOGIC ADJUVANTS” (Lancell, L.L.C., priority 2011, published 2015):
Several values for one entry are separate records, joined by “and”; a condition that tells them apart may be missing. Equal values may be shown once.

Test system: skin
Assay: Affymetrix microarray of skin, DBP-4 hr and analogs vs. untreated; gene selection by log-2 fold change, Wilcoxon, Kendall tau (Tables 8, 9)
Type: in vivo, mouse
Settings: mouse, in vivo

CCCCOC(=O)c1ccccc1C(=O)OCCCC [DBP, dibutylphthalate]
DBP LogFold-Change Versus-Untreated: Csrp1: 0.81
DBP LogFold-Change Versus-Untreated: Cxcl1: 5.43
DBP LogFold-Change Versus-Untreated: Cxcl2: 4.56
DBP LogFold-Change Versus-Untreated: Cxcl16: 1.35
DBP LogFold-Change Versus-Untreated: Cyr61: 1.59
DBP LogFold-Change Versus-Untreated: Cytip: 1.19
DBP LogFold-Change Versus-Untreated: Deptor: 0.99
DBP LogFold-Change Versus-Untreated: Dusp6: 1.81
DBP LogFold-Change Versus-Untreated: Dusp7: 1.07
DBP LogFold-Change Versus-Untreated: Efhd2: 0.82
DBP LogFold-Change Versus-Untreated: Egr1: 1.50
DBP LogFold-Change Versus-Untreated: Eif1a: 0.97
DBP LogFold-Change Versus-Untreated: Epgn: 3.82
DBP LogFold-Change Versus-Untreated: Epha2: 0.82
DBP LogFold-Change Versus-Untreated: Errfi1: 0.89
DBP LogFold-Change Versus-Untreated: F2rl1: 0.78
DBP LogFold-Change Versus-Untreated: Fam43a: 0.81
DBP LogFold-Change Versus-Untreated: Fgfbp1: 1.01
DBP LogFold-Change Versus-Untreated: Fkbp5: 1.19
DBP LogFold-Change Versus-Untreated: Fosl1: 1.95
DBP LogFold-Change Versus-Untreated: Gjb2: 1.21
DBP LogFold-Change Versus-Untreated: Gpr35: 0.91
DBP LogFold-Change Versus-Untreated: Gpr65: 1.35
DBP LogFold-Change Versus-Untreated: Gyk: 1.00
DBP LogFold-Change Versus-Untreated: Gzmb: 1.30
DBP LogFold-Change Versus-Untreated: Havcr2: 1.89
DBP LogFold-Change Versus-Untreated: Hbegf: 1.76
DBP LogFold-Change Versus-Untreated: Hdc: 2.14
DBP LogFold-Change Versus-Untreated: Icam1: 2.66
DBP LogFold-Change Versus-Untreated: Ier2: 1.02
DBP LogFold-Change Versus-Untreated: Ier3: 1.85
DBP LogFold-Change Versus-Untreated: Il1b: 2.73
DBP LogFold-Change Versus-Untreated: Il1rl1: 0.91
DBP LogFold-Change Versus-Untreated: Il4ra: 0.81
DBP LogFold-Change Versus-Untreated: Il6: 3.05
DBP LogFold-Change Versus-Untreated: Il7r: 1.15
DBP LogFold-Change Versus-Untreated: Il10ra: 0.90
DBP LogFold-Change Versus-Untreated: Irs2: 0.94
DBP LogFold-Change Versus-Untreated: Jun: 1.06
DBP LogFold-Change Versus-Untreated: Junb: 1.39
DBP LogFold-Change Versus-Untreated: Kctd11: 0.80
DBP LogFold-Change Versus-Untreated: Klrb 1b: 1.25
DBP LogFold-Change Versus-Untreated: Krt6a: 1.53
DBP LogFold-Change Versus-Untreated: Krt35: 1.06
DBP LogFold-Change Versus-Untreated: LOC100504977: 3.10
DBP LogFold-Change Versus-Untreated: Map3k6: 1.03
DBP LogFold-Change Versus-Untreated: Map3k8: 1.01
DBP LogFold-Change Versus-Untreated: Mt1: 1.34
DBP LogFold-Change Versus-Untreated: Mt2: 1.11
DBP LogFold-Change Versus-Untreated: Nfil3: 1.60
DBP LogFold-Change Versus-Untreated: Nfkb2: 0.94
DBP LogFold-Change Versus-Untreated: Nr4a1: 2.09
DBP LogFold-Change Versus-Untreated: Nr4a2: 1.39
DBP LogFold-Change Versus-Untreated: Osmr: 0.95
DBP LogFold-Change Versus-Untreated: Otud7a: 1.25
DBP LogFold-Change Versus-Untreated: Pde4b: 1.44
DBP LogFold-Change Versus-Untreated: Plaur: 1.06
DBP LogFold-Change Versus-Untreated: Plk3: 1.00
DBP LogFold-Change Versus-Untreated: Pmaip1: 1.47
DBP LogFold-Change Versus-Untreated: Pprc1: 0.78
DBP LogFold-Change Versus-Untreated: Pqlc1: 0.87
DBP LogFold-Change Versus-Untreated: Prss22: 1.61
DBP LogFold-Change Versus-Untreated: Ptges: 1.22
DBP LogFold-Change Versus-Untreated: Pvr: 0.90
DBP LogFold-Change Versus-Untreated: Pyy: 2.62
DBP LogFold-Change Versus-Untreated: Rab20: 1.52
DBP LogFold-Change Versus-Untreated: Ramp3: 1.20
DBP LogFold-Change Versus-Untreated: Rgs1: 2.12
DBP LogFold-Change Versus-Untreated: Rnf19b: 1.15
DBP LogFold-Change Versus-Untreated: Serpine1: 2.68
DBP LogFold-Change Versus-Untreated: Slc7a5: 1.52
DBP LogFold-Change Versus-Untreated: Slc10a6: 1.33
DBP LogFold-Change Versus-Untreated: Slc25a25: 1.16
DBP LogFold-Change Versus-Untreated: Slc39a8: 1.52
DBP LogFold-Change Versus-Untreated: Slc39a14: 0.84
DBP LogFold-Change Versus-Untreated: Smox: 1.30 and 1.29 and 1.28
DBP LogFold-Change Versus-Untreated: Socs2: 1.26
DBP LogFold-Change Versus-Untreated: Socs3: 1.39
DBP LogFold-Change Versus-Untreated: Sprr1a: 1.43
DBP LogFold-Change Versus-Untreated: Stc1: 1.07
DBP LogFold-Change Versus-Untreated: Stk17b: 0.89
DBP LogFold-Change Versus-Untreated: Tnfaip2: 1.94
DBP LogFold-Change Versus-Untreated: Tnfaip3: 2.10
DBP LogFold-Change Versus-Untreated: Tnfaip6: 2.30
DBP LogFold-Change Versus-Untreated: Traf1: 1.07
DBP LogFold-Change Versus-Untreated: Uap1: 1.11
DBP LogFold-Change Versus-Untreated: Zbtb16: 1.04
DBP LogFold-Change Versus-Untreated: Zfp36: 1.53
DBP LogFold-Change Versus-Untreated: Zfp593: 1.01
